Key:
[1] = test system: cultured human fibroblasts; experiment: Inhibition of lipid peroxide formation in cultured human fibroblasts (TBA method); type: cell-based; conditions: Homo sapiens, Fibroblast, light or radiation study, 0.01 wt. % in ethanol, 100 mM porphyrin, UV-A/UV-B 1 J/cm^2, read-out: Inhibition ratio regarding lipid peroxide formation
Procedure: Inhibition of lipid peroxide formation
Cultured human fibroblasts were combined with 100 mM porphyrin and a test substance (0.01 wt. %, in ethanol). A mixture of UV-A/UV-B rays (1 J/cm^2, measurements performed at 365 nm) was irradiated onto the resultant cell culture using a solar simulator. The fibroblasts were collected after the trypsin treatment, then extracted hydrophobic substances using acetone. The extracted substances were dried under nitrogen to prepare cellular lipid samples. A TBA method was used to measure lipid peroxides in cells and inhibition ratio by a test substance.

[2] = test system: dopachrome formation from dopa; experiment: Inhibition of immediate pigment darkening (dopachrome formation from dopa, porphyrin + UV); type: biochemical; conditions: 0.5 wt. % in ethanol; dopa 1 mM, porphyrin 5 mM; UV-A/UV-B 3 J/cm^2; absorption at 475 nm
Procedure: Inhibition of immediate pigment darkening
An ethanol solution containing a test substance (0.5 wt. %) was added to a mixture of dopa (1 mM) and porphyrin (5 mM). A mixture of UV-A/UV-B (3 J/cm^2, measured at 365 nm) was irradiated onto the resultant mixture using a solar simulator. The amount of dopachrome formed by irradiation was determined by measuring absorption at 475 nm.

[3] = test system: skin of colored guinea pigs; experiment: Inhibition of delayed darkening (UV-A/UV-B irradiation); type: in vivo; conditions: 7 wt. % in ethanol; UV-A/UV-B 50 J/cm^2; 14 days after irradiation; color difference meter
Procedure: Inhibition of delayed darkening
The hair of colored guinea pigs (8 week old, female) hair was removed, and an ethanol solution containing a test substance (7 wt. %) was applied to the skin. A mixture of UV- A/UV-B rays (50 J/cm^2, measured at 365 nm using a UV-radiometer UVR-305/365-D, Torex Co.) was irradiated onto the back of each guinea pig using a solar simulator. Fourteen days after irradiation, delayed darkening inhibition ratios were measured using a color difference meter (Model 1001P. Nippon Kogyo Co., Ltd.).

[4] = test system: sunburn cells in skin of ICR/HR mice; experiment: Inhibition of sunburn cell formation (UV-B irradiation); type: in vivo; conditions: Mus musculus, light or radiation study, topical; 1 wt. % in ethanol; UV-B 100 mJ/cm^2; 24 hours later; read-out: Inhibition ratio regarding sunburn cell formation
From the text: Inhibition of sunburn cell formation
Ethanol solution of a test substance (1 wt. %) was applied onto the skin of ICR/HR mice. UV-B (100 mJ/cm^2) was irradiated onto the skin (health lamp SE20/SLE, Toshiba). Twenty-four hours later, the skin was biopsied and stained using hematoxylin & eosin, after which the number of sunburn cells were counted under microscope.

[5] = test system: E. coli vector pUC119 DNA; type: biochemical; conditions: 0.01 wt. % in ethanol; 100 mM porphyrin; UV-A/UV-B 3 J/cm^2; agarose gel electrophoresis
Procedure: To a mixture of […] E. coli vector pUC119 DNA and 100 mM porphyrin, an ethanol solution containing a test substance (0.01 wt. %) was added. A mixture of UV-A/UV-B (3 J/cm^2, measured at 365 nm) was irradiated onto the resultant DNA mixture using a solar simulator. A 2.5-fold amount of ethanol and a 0.1-fold amount of 5M sodium acetate were added and the DNA was precipitated. The DNA pellet was dissolved in a TE buffer, and analyzed through agarose gel electrophoresis. Inhibition of DNA single strand breaks formation was measured.

[6] = test system: skin of white guinea pigs; experiment: Inhibition of erythema formation (UV-A/UV-B irradiation); type: in vivo; conditions: Cavia porcellus, light or radiation study, topical; 5 wt. % in ethanol; UV-A/UV-B 40 J/cm^2; determined after 1 day and 2 days; read-out: Erythema inhibition rate
From the text: Inhibition of erythema formation
The hair of white guinea pigs (8 weeks old, female) hair was removed by shaving, and an ethanol solution containing a test substance (5 wt. %) was applied to the shaved part of each animal. A mixture of UV-A/UV-B (40 J/cm^2, measured at 365 nm using a UV-radiometer UVR-305/365-D, Torex Co.) was irradiated onto the back of each guinea pig using a solar simulator Model 1600 (Solar Light Co.). After 1 day and 2 days of irradiation, the erythema formation was visually determined by the standards of the Japanese Dermatological Association to obtain erythema inhibition ratios.

collagen = experiment: Inhibition of protein denaturation (collagen crosslinking, porphyrin + UV); type: biochemical; conditions: 0.1 wt. % in ethanol; collagen 0.5 mg/ml, porphyrin 100 mM; UV-A/UV-B 3 J/cm^2; SDS-PAGE
Procedure: Inhibition of protein denaturation
An ethanol solution containing a test substance (0.1 wt. %) was added to a mixture of collagen (0.5 mg/ml) and 2 porphyrin (100 mM). A mixture of UV-A/UV-B (3 J/cm^2, measured at 365 nm) was irradiated onto the resultant mixture using a solar simulator. The irradiated mixture was applied to SDS-PAGE electrophoresis, and collagen crosslinking inhibition ratios were measured.

skin of ICR/HR mice = experiment: Inhibition of wrinkle formation in the skin of mice (UV-B, 16 weeks); type: in vivo, ICR/HR mouse; conditions: Mus musculus, topical, 2688 h; 1 wt. % in ethanol; 1 MED UV-B five times per week over sixteen weeks
From the text: Inhibition of wrinkle formation in the skin of mice
To the back of each ICR/HR mouse (female, 6 weeks old), an ethanol solution containing a test substance (1 wt. %) was applied. One (1) MED of UV-B was irradiated thereto using a health lamp SL20-SLE (Toshiba). Irradiation was repeated five times per week over sixteen weeks. Wrinkle formation was visually scored using the following five rankings.
1: Mild and questionable wrinkles are observed
2: Mild but clear and definite wrinkles are observed
3: Moderate wrinkles are observed
4: Severe wrinkles are observed
Using the above rankings, wrinkle formations were scored and the inhibition ratios were determined by the division by the blank score.

SMILES | inhibition at 0.01 wt% [1] [%] | Inhibition ratio regarding immediate blackening [2] [%] | ΔΔL value [3] | inhibition in vivo at 1 % [4] [%] | Prevention of DNA damage [5] [%] | inhibition in vivo at 5 % [6] [%] | Protein denaturation inhibition ratio (collagen) [%] | inhibition in vivo at 1 % (skin of ICR/HR mice) [%]
CCCCN(CC(O)COC)c1ccc(C)c(C)c1 (centres unmarked) [Compound (32), N-n-butyl-N-(2-hydroxy-3-methoxypropyl)-3,4-xylidine] | 54 | 56 | 1.3 | 61 | 61 | 53 | 88 | 43
Cc1ccc(N(C)CC(O)CO)cc1 (centres unmarked) [Compound (33), N-(2,3-dihydroxypropyl)-N-methyl-p-toluidine] | 47 | 67 | 1.1 | 54 | 48 | 43 | 44 | 35
CCCCN(CC(O)CO)c1ccc(C)c(C)c1 (centres unmarked) [Compound (34), N-n-butyl-N-(2,3-dihydroxypropyl)-3,4-xylidine] | 52 | 63 | 1.3 | 64 | 64 | 65 | 61 | 43
COCC(O)CN(C)c1ccc(OC)cc1 (centres unmarked) [Compound (1), N-(2-hydroxy-3-methoxypropyl)-N-methyl-p-anisidine] | 51 | 71 | 1.7 | 79 | 69 | 68 | 85 | 47
CCCCN(CC(O)COC)c1ccccc1 (centres unmarked) [Compound (6), N-n-butyl-N-(2-hydroxy-3-methoxypropyl)aniline] | 40 | 53 | 1.1 | 46 | 47 | 37 | 53 | 36
COCC(O)CN(CC(O)COC)c1ccc(C)cc1 (centres unmarked) [Compound (4), N,N-bis(2-hydroxy-3-methoxypropyl)-p-toluidine] | 57 | 76 | 1.8 | 81 | 69 | 69 | 87 | 51
CCCCCCCCN(CC(O)COC)c1ccc(OC)cc1 (centres unmarked) [Compound (3), N-(2-hydroxy-3-methoxypropyl)-N-n-octyl-p-anisidine] | 60 | 83 | 2.0 | 86 | 71 | 71 | 93 | 58
CCCCN(CC(O)COC)c1ccc(C)cc1 (centres unmarked) [Compound (5), N-n-butyl-N-(2-hydroxy-3-methoxypropyl)-p-toluidine] | 48 | 65 | 1.5 | 65 | 66 | 65 | 81 | 43
CCCCCCCCN(CC(O)CO)c1ccc(OC)cc1 (centres unmarked) [Compound (35), N-(2,3-dihydroxypropyl)-N-octyl-p-anisidine] | 56 | 78 | 1.9 | 81 | 79 | 78 | 84 | 42
CCCCN(CC(O)COC)c1ccc(OC)cc1 (centres unmarked) [Compound (2), N-n-butyl-N-(2-hydroxy-3-methoxypropyl)-p-anisidine] | 43 | 57 | 1.1 | 53 | 50 | 42 | 62 | 38
